{"source": "patent US20060281755A1", "about": "“SYNERGISTIC MODULATION OF FLT3 KINASE USING AMINOPYRIMIDINES KINASE MODULATORS” (priority 2005, published 2006)", "key": {"MV4-11 tumor xenografts": {"tested_on": "MV4-11 tumor xenografts", "assay": "MV4-11 human tumor xenograft regression model in nude mice", "type": "in vivo", "settings": "50 mg/kg bid oral", "protocol": "Female athymic nude mice (CD-1, nu/nu, 9-10 weeks old) were obtained from Charles River Laboratories (Wilmington, Mass.) and were maintained according to NIH standards. All mice were group housed (5 mice/cage) under clean-room conditions in sterile micro-isolator cages on a 12-hour light/dark cycle in a room maintained at 21-22° C. and 40-50% humidity. Mice were fed irradiated standard rodent diet and water ad libitum. All animals were housed in a Laboratory Animal Medicine facility that is fully accredited by the American Association for Assessment and Accreditation of Laboratory Animal Care (AAALAC). […]\nThe time course of the inhibitory effects of FLT3 inhibitor compounds on the growth of MV4-11 tumors is illustrated in FIG. 1. […] Percent inhibition (% 1) of tumor growth was calculated versus tumor growth in the vehicle-treated Control group on the last study day. Statistical significance versus Control was determined by Analysis of Variance (ANOVA) followed by Dunnett's t-test: * p<0.05; ** p<0.01.\n(See FIG. 2). […] Percent Inhibition was calculated versus the mean tumor weight in the vehicle-treated control group. Statistical significance versus Control was determined by ANOVA followed by Dunnett's t-test: ** p<0.01. […]"}, "[1]": {"settings": "patients with relapsed and refractory AML; cited from earlier work"}, "Baf3-FLT3 cells": {"tested_on": "Baf3-FLT3 cells", "assay": "72-hour cell proliferation assay and combination index analysis, Baf3-FLT3", "type": "cell-based, murine", "settings": "with single sub-IC50 dose of FLT3 inhibitor Compound A (100 nM)", "protocol": "Dose responses for the individual compounds alone were determined for each cell line using a standard 72-hour cell proliferation assay (see FIGS. 6.1-6.8). […] Each of these chemically distinct compounds alone has potential for the treatment of disorders related to FLT3, such as FLT3 positive AML. […] The FLT3 inhibitors tested had no effect on THP-1 proliferation. […] (See FIGS. 10.1-10.8 and Tables 1-3, hereafter.)\nTo statistically evaluate the synergy of a FLT3 inhibitor and an FTI in FLT3 dependent cell lines, dosing combinations were evaluated by the method of Chou and Talalay. See Chou T C, Talalay P. (1984) “Quantitative analysis of dose-effect relationships: the combined effects of multiple drugs or enzyme inhibitors.” Adv Enzyme Regul. 22:27-55. Using this method inhibitors are added simultaneously to cells in a ratio of the IC50 dose of each compound alone. […] Using this method, multiple FTI and FLT3 combinations were evaluated. […]\nCombination Index Analysis. To determine growth inhibition synergy of a FTI and FLT3 inhibitor combination based on the method of Chou and Talalay (Chou and Talalay. See Chou T C, Talalay P. (1984) “Quantitative analysis of dose-effect relationships: the combined effects of multiple drugs or enzyme inhibitors.” Adv Enzyme Regul. 22:27-55.), fixed ratio combination dosing with isobolar statistical analysis was performed. […]"}, "MV4-11 AML cells": {"tested_on": "MV4-11 AML cells", "assay": "72-hour cell proliferation assay and combination index analysis, MV4-11", "type": "cell-based, human", "settings": "with single sub-IC50 dose of FLT3 inhibitor Compound A (50 nM)"}}}
{"smiles": "Cn1cncc1C(N)(c1ccc(Cl)cc1)c1ccc2c(c1)c(-c1cccc(Cl)c1)cc(=O)n2C", "note": "(single isomer, unassigned; (+)) [Tipifarnib, (+)-6-[amino(4-chlorophenyl)(1-methyl-1H-imidazol-5-yl)methyl]-4-(3-chlorophenyl)-1-methyl-2(1H)-quinolinone]", "values": [{"measurement": "effect on tumor growth as single agent", "setting": "MV4-11 tumor xenografts; 9 days", "result": "ineffective"}, {"measurement": "effect on tumor growth as single agent", "setting": "MV4-11 tumor xenografts; 16 days", "result": "ineffective"}, {"measurement": "response rate", "setting": "[1]", "result": "~30", "unit": "%"}, {"measurement": "increase in potency of Tipifarnib", "setting": "Baf3-FLT3 cells", "result": "more than 3 fold"}, {"measurement": "increase in potency of Tipifarnib", "setting": "MV4-11 AML cells", "result": "more than 3 fold"}]}
